From patent US12145914B2, “Compound having oxadiazole and pharmaceutical composition containing the same” (SK BIOPHARMACEUTICALS CO., LTD., priority 2018, dated 2024)

Each molecule was assayed on focal onset seizures induced by electrostimulation of 44 mA, 6 Hz, 3 sec in ICR mouse (assay: 6 Hz method for screening anticonvulsants (6 Hz, 44 mA electrostimulation)). Conditions: male ICR mice, intraperitoneal (ip), electrostimulation 44 mA, 3 sec to the eye, number of non-seizure animals/number of animals used.
Assay type: in vivo
Text: The utility of the compounds according to the present invention as an anticonvulsant agent has been investigated by the 6 Hz method, which has been well established as pharmacological screening methods of convulsant agents for focal onset seizures. The procedure of the 6 Hz method for screening anticonvulsant was as follows:
1) Preparation of Experimental Animals
Male ICR mice are purchased from Orient Bio, Inc. of Korea, and are stored and managed according to laboratory animal management standards of the Institutional Animal Care and Use Committee (IACUC) by putting the same in a wire net cage under an environment in which an ambient temperature of 19 to 25° C., 40 to 60% relative humidity and 12 hour periods of light/dark were auto-controlled, and water was freely taken. After stabilization for a week, mice with a body weight of 18 to 23 g were used in the experiment.
2) Evaluation of the Anticonvulsant Effect of a Compound
5% Tetracaine (Sigma) was added to both eyes to provide a local anesthetic effect at 5 to 10 minutes before the period of electrical stimulation at the animal ICR mouse. The compounds to be tested were dissolved in distilled water in which 30% polyethylene glycol 300+5% dimethylsulfoxide+5% Cremophor was dissolved and administered intraperitoneally (ip) to the animal at a dosage volume of 10 mL/kg. Then, electrostimulation of 44 mA, 6 Hz, and 3 sec was applied to the eye to induce focus-generating seizures. After the electrical stimulation, the presence of seizures due to drug effects was confirmed, and the ratio of animals showing no seizures was expressed as a protection rate (the number of non-seizure animals/the number of animals used in experiments=protection rate). […]

| SMILES | 6 Hz, 44 mA protection rate |
| --- | --- |
| CCCCOc1ccc(F)c(C(Cc2nnc(C)o2)OC(N)=O)c1 (stereo not drawn) [Example 22, [1-(5-butoxy-2-fluoro-phenyl)-2-(5-methyl-1,3,4-oxadiazol-2-yl)ethyl] carbamate] | + (0.2 to 0.6 are scored as ‘+’) |
| COc1ccc(-c2ccc(C(F)(F)F)cc2)cc1C(O)Cc1nnc(C)o1 (stereo not drawn) [Example 43, 1-[2-methoxy-5-[4-(trifluoromethyl)phenyl]phenyl]-2-(5-methyl-1,3,4-oxadiazol-2-yl)ethanol] | + (0.2 to 0.6 are scored as ‘+’) |
| Cc1nnc(CC(O)c2cc(-c3ccc(Cl)cc3)ccc2F)o1 (stereo not drawn) [Example 1, 1-[5-(4-chlorophenyl)-2-fluoro-phenyl]-2-(5-methyl-1,3,4-oxadiazol-2-yl)ethanol] | ++ (0.6 to 0.8 are scored as ‘++’) |
| Cc1nnc(CC(O)c2cc(-c3ccc(C(F)(F)F)cc3)ccc2F)o1 (stereo not drawn) [Example 2, 1-[2-fluoro-5-[4-(trifluoromethyl)phenyl]phenyl]-2-(5-methyl-1,3,4-oxadiazol-2-yl)ethanol] | ++ (0.6 to 0.8 are scored as ‘++’) |
| Cc1nnc(CC(O)c2cccc(-c3ccc(OC(F)(F)F)cc3)c2)o1 (stereo not drawn) [Example 59, 2-(5-methyl-1,3,4-oxadiazol-2-yl)-1-[3-[4-(trifluoromethoxy)phenyl]phenyl]ethanol] | ++ (0.6 to 0.8 are scored as ‘++’) |
| Cc1nnc(CC(OC(N)=O)c2cccc(-c3ccc(Cl)cc3)c2)o1 (stereo not drawn) [Example 75, [1-[3-(4-chlorophenyl)phenyl]-2-(5-methyl-1,3,4-oxadiazole-2-yl)ethyl] carbamate] | + (0.2 to 0.6 are scored as ‘+’) |
| Cc1nnc(CC(O)c2cc(C(=O)NCCC(F)(F)F)ccc2F)o1 (stereo not drawn) [Example 37, 4-fluoro-3-[1-hydroxy-2-(5-methyl-1,3,4-oxadiazol-2-yl)ethyl]-N-(3,3,3-trifluoropropyl)benzamide] | + (0.2 to 0.6 are scored as ‘+’) |
| Cc1nnc(CC(OC(N)=O)c2cccc(OCCCC(F)(F)F)c2)o1 (stereo not drawn) [Example 20, [2-(5-methyl-1,3,4-oxadiazol-2-yl)-1-[3-(4,4,4-trifluorobutoxy)phenyl]ethyl] carbamate] | + (0.2 to 0.6 are scored as ‘+’) |
| Cc1nnc(CC(O)c2cc(CCC(F)(F)F)ccc2F)o1 (stereo not drawn) [Example 10, 1-[2-fluoro-5-(3,3,3-trifluoropropyl)phenyl]-2-(5-methyl-1,3,4-oxadiazol-2-yl)ethanol] | + (0.2 to 0.6 are scored as ‘+’) |
| Cc1nnc(CC(OC(N)=O)c2cc(-c3ccc(Cl)cc3)ccc2F)o1 (stereo not drawn) [Example 4, [1-[5-(4-chlorophenyl)-2-fluoro-phenyl]-2-(5-methyl-1,3,4-oxadiazol-2-yl)ethyl] carbamate] | ++ (0.6 to 0.8 are scored as ‘++’) |
| OC(Cc1nnco1)c1cc(-c2ccc(C(F)(F)F)cc2)ccc1F (stereo not drawn) [Example 5, 1-[2-fluoro-5-[4-(trifluoromethyl)phenyl]phenyl]-2-(1,3,4-oxadiazol-2-yl)ethanol] | + (0.2 to 0.6 are scored as ‘+’) |
| Cc1nnc(CC(O)c2cc(-c3ccc(C(F)(F)F)cc3)ccc2Cl)o1 (stereo not drawn) [Example 48, 1-[2-chloro-5-[4-(trifluoromethyl)phenyl]phenyl]-2-(5-methyl-1,3,4-oxadiazol-2-yl)ethanol] | ++ (0.6 to 0.8 are scored as ‘++’) |
| Cc1nnc(CC(OC(N)=O)c2cc(-c3ccc(C(F)(F)F)cc3)ccc2F)o1 (stereo not drawn) [Example 3, [1-[2-fluoro-5-[4-(trifluoromethyl)phenyl]phenyl]-2-(5-methyl-1,3,4-oxadiazole-2-yl)ethyl] carbamate] | ++ (0.6 to 0.8 are scored as ‘++’) |
| Cc1nnc(CC(OC(N)=O)c2cccc(-c3ccc(C(F)(F)F)cc3)c2)o1 (stereo not drawn) [Example 7, [2-(5-methyl-1,3,4-oxadiazol-2-yl)-1-[3-[4-(trifluoromethyl)phenyl]phenyl]ethyl]carbamate] | ++ (0.6 to 0.8 are scored as ‘++’) |
| Cc1nnc(CC(O)c2cc(OCC(F)(F)F)ccc2F)o1 (stereo not drawn) [Example 17, 1-[2-fluoro-5-(2,2,2-trifluoroethoxy)phenyl]-2-(5-methyl-1,3,4-oxadiazol-2-yl)ethanol] | + (0.2 to 0.6 are scored as ‘+’) |
| Cc1nnc(CC(OC(N)=O)c2cccc(-c3ccc(F)cc3)c2)o1 (stereo not drawn) [Example 72, [1-[3-(4-fluorophenyl)phenyl]-2-(5-methyl-1,3,4-oxadiazol-2-yl)ethyl] carbamate] | + (0.2 to 0.6 are scored as ‘+’) |
| Cc1nnc(CC(OC(N)=O)c2cc(CCCCC(F)(F)F)ccc2F)o1 (stereo not drawn) [Example 34, [1-[2-fluoro-5-(5,5,5-trifluoropentyl)phenyl]-2-(5-methyl-1,3,4-oxadiazol-2-yl)ethyl] carbamate] | ++ (0.6 to 0.8 are scored as ‘++’) |

| SMILES | 6 Hz, 44 mA protection rate |
| --- | --- |
| CC1(C)O[C@@H]2[C@@H](CO[C@@]3(COS(N)(=O)=O)OC(C)(C)O[C@@H]23)O1 [Topiramate, reference compound] | − (the protection rates 0 to 0.2 are scored as ‘−’) |
| NC(=O)OC(Cc1nnco1)c1cc(-c2ccc(C(F)(F)F)cc2)ccc1Cl (stereo not drawn) [Example 51, [1-[2-chloro-5-[4-(trifluoromethyl)phenyl]phenyl]-2-(1,3,4-oxadiazol-2-yl)ethyl]carbamate] | + (0.2 to 0.6 are scored as ‘+’) |
| NC(=O)OC(Cc1nnco1)c1cc(OCCCC(F)(F)F)ccc1F (stereo not drawn) [Example 24, [1-[2-fluoro-5-(4,4,4-trifluorobutoxy)phenyl]-2-(1,3,4-oxadiazol-2-yl)ethyl] carbamate] | ++ (0.6 to 0.8 are scored as ‘++’) |
| CCc1nnc(CC(O)c2cccc(-c3ccc(C(F)(F)F)cc3)c2)o1 (stereo not drawn) [Example 53, 2-(5-ethyl-1,3,4-oxadiazol-2-yl)-1-[3-[4-(trifluoromethyl)phenyl]phenyl]ethanol] | + (0.2 to 0.6 are scored as ‘+’) |
| Cc1nnc(CC(OC(N)=O)c2cc(OCCCC(F)(F)F)ccc2F)o1 (stereo not drawn) [Example 16, [1-[2-fluoro-5-(4,4,4-trifluorobutoxy)phenyl]-2-(5-methyl-1,3,4-oxadiazol-2-yl)ethyl] carbamate] | ++ (0.6 to 0.8 are scored as ‘++’) |
| COC(Cc1nnc(C)o1)c1cccc(-c2ccc(C(F)(F)F)cc2)c1 (stereo not drawn) [Example 56, 2-[2-methoxy-2-[3-[4-(trifluoromethyl)phenyl]phenyl]ethyl]-5-methyl-1,3,4-oxadiazole] | ++ (0.6 to 0.8 are scored as ‘++’) |
| CC[C@@H](C(N)=O)N1CCCC1=O [Levitiracetam, (S)-α-ethyl-2-oxo-1-pyrrolidine acetamide, reference compound] | − (the protection rates 0 to 0.2 are scored as ‘−’) |
| Cc1nnc(CC(OC(N)=O)c2cc(-c3ccc(C(F)(F)F)cc3)ccc2Cl)o1 (stereo not drawn) [Example 50, [1-[2-chloro-5-[4-(trifluoromethyl)phenyl]phenyl]-2-(5-methyl-1,3,4-oxadiazol-2-yl)ethyl] carbamate] | ++ (0.6 to 0.8 are scored as ‘++’) |
| Cc1nnc(CC(OC(N)=O)c2cccc(-c3ccc(OC(F)(F)F)cc3)c2)o1 (stereo not drawn) [Example 78, [1-[3-[4-(trifluoromethoxy)phenyl]phenyl]-2-(5-methyl-1,3,4-oxadiazol-2-yl)ethyl] carbamate] | ++ (0.6 to 0.8 are scored as ‘++’) |
| Nc1nnc(-c2cccc(Cl)c2Cl)c(N)n1 [Lamotrigine, reference compound] | − (the protection rates 0 to 0.2 are scored as ‘−’) |
| Cc1nnc(CC(O)c2cc(-c3ccc(C(F)(F)F)cc3)ccc2C)o1 (stereo not drawn) [Example 42, 2-(5-methyl-1,3,4-oxadiazol-2-yl)-1-[2-methyl-5-[4-(trifluoromethyl)phenyl]phenyl]ethanol] | ++ (0.6 to 0.8 are scored as ‘++’) |
| OC(Cc1nnco1)c1cc(OCCCC(F)(F)F)ccc1F (stereo not drawn) [Example 23, 1-[2-fluoro-5-(4,4,4-trifluorobutoxy)phenyl]-2-(1,3,4-oxadiazol-2-yl)ethanol] | + (0.2 to 0.6 are scored as ‘+’) |
| Cc1nnc(CC(O)c2cc(CCCCC(F)(F)F)ccc2F)o1 (stereo not drawn) [Example 32, 1-[2-fluoro-5-(5,5,5-trifluoropentyl)-phenyl]-2-(5-methyl-1,3,4-oxadiazol-2-yl)ethanol] | + (0.2 to 0.6 are scored as ‘+’) |
| Cc1nnc(CC(O)c2cccc(-c3ccc(Cl)cc3)c2)o1 (stereo not drawn) [Example 65, 1-[3-(4-chlorophenyl)phenyl]-2-(5-methyl-1,3,4-oxadiazol-2-yl)ethanol] | ++ (0.6 to 0.8 are scored as ‘++’) |
| Cc1nnc(CC(OC(N)=O)c2cc(CCCC(F)(F)F)ccc2F)o1 (stereo not drawn) [Example 33, [1-[2-fluoro-5-(4,4,4-trifluorobutyl)phenyl]-2-(5-methyl-1,3,4-oxadiazol-2-yl)ethyl] carbamate] | + (0.2 to 0.6 are scored as ‘+’) |
| Cc1nnc(CC(O)c2cc(OCCCC(F)(F)F)ccc2Cl)o1 (stereo not drawn) [Example 39, 1-[2-chloro-5-(4,4,4-trifluorobutoxy)phenyl]-2-(5-methyl-1,3,4-oxadiazol-2-yl)ethanol] | + (0.2 to 0.6 are scored as ‘+’) |
